{"source": "patent US11083777B2", "about": "“Hemichannel extracellular-domain specific agents for treating ischemia-reperfusion injury” (The Feinstein Institutes for Medical Research, priority 2015, dated 2021)", "key": {"Cx43 hemichannel": {"target": "Cx43 hemichannel (Homo sapiens, UniProt P17302)", "sequence (P17302 whole entry)": "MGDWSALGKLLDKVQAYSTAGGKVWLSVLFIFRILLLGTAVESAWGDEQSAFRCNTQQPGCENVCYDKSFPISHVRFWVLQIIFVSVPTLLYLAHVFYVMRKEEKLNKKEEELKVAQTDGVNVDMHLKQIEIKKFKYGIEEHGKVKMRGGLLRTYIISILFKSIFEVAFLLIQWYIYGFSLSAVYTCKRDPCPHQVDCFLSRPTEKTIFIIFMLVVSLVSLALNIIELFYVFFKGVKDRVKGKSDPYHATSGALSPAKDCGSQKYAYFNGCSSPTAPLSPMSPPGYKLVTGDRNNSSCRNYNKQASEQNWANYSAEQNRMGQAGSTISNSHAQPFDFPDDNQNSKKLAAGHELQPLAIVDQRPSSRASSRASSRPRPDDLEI", "settings": "ATP release or dye uptake; cited from earlier work"}, "Cx43 gap junctions": {"target": "Cx43 gap junctions (Homo sapiens, UniProt P17302)", "sequence (P17302 whole entry)": "as above", "settings": "cited from earlier work"}, "Panx1 hemichannels": {"target": "Panx1 hemichannels (Homo sapiens, UniProt Q96RD7)", "sequence (Q96RD7 whole entry)": "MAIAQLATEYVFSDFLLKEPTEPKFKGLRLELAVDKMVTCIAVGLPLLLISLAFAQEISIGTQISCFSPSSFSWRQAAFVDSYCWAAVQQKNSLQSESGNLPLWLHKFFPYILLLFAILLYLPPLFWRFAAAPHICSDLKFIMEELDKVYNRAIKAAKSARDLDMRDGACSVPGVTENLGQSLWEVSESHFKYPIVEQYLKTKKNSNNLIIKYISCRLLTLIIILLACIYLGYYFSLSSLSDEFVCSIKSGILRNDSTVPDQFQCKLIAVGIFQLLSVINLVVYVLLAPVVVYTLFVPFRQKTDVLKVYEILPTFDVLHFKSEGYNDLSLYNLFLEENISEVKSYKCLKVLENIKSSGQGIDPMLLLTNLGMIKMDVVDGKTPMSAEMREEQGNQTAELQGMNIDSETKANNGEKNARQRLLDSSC", "settings": "cited from earlier work"}, "[1]": {"tested_on": "Primary peritoneal macrophages", "test": "LPS-induced HMGB1 secretion in primary peritoneal macrophages (Western blotting)", "assay_type": "cell-based, murine", "settings": "crude LPS, 16 h, extracellular HMGB1", "experimental": "FIG. 2A-2C. […] AU, arbitrary units. *, P<0.05 versus “+LPS alone.”\nPrimary murine macrophages and human monocytes were employed to investigate the mechanisms underlying the regulation of HMGB1 secretion by various inflammatory stimuli. Primary peritoneal macrophages were isolated from Balb/C mice (male, 7-8 weeks, 20-25 grams) at 2-3 days after intraperitoneal injection of 2 ml thioglycollate broth (4%, Difco, Detroit, Mich.) as previously described (23,78). Human peripheral blood mononuclear cells (HuPBMCs) were isolated from human blood purchased from the New York (Long Island) Blood Bank (Melville, N.Y.) by density gradient centrifugation through Ficoll (Ficoll-Paque PLUS, Pharmacia, Piscataway, N.J.) as previously described (23,78,79). At 80-90% confluence, macrophage/monocyte cultures will be stimulated with divergent stimuli: ultrapure and crude LPS, CIRP 14, SAA (PeproTech, Cat. No. 300-13) at different concentrations and for various time periods (0, 6, 12, and 18 h). The expression levels of Cx43 or Panx1 hemichannel proteins in macrophage/monocyte cultures are determined by Western blotting or immunocytochemistry techniques as previously described (21,23,80)."}, "[2]": {"tested_on": "Primary peritoneal macrophages", "settings": "reference 49; cited from earlier work"}, "[3]": {"tested_on": "macrophage hemichannel activities", "test": "Lucifer Yellow uptake in LPS-stimulated macrophages", "assay_type": "cell-based"}, "Panx1 hemichannel": {"target": "Panx1 hemichannel (Homo sapiens, UniProt Q96RD7)", "sequence (Q96RD7 whole entry)": "as above", "settings": "cited from earlier work"}, "[4]": {"tested_on": "Primary peritoneal macrophages", "test": "LPS-induced NO production in primary peritoneal macrophages (Griess reaction)", "assay_type": "cell-based, murine", "settings": "crude LPS, 16 h"}, "PKR": {"tested_on": "PKR", "test": "LPS-induced PKR expression and phosphorylation (Western blotting)", "assay_type": "cell-based, murine", "settings": "crude LPS, 16 h, primary macrophages"}, "C57BL/6 mice": {"tested_on": "C57BL/6 mice", "test": "Hepatic ischemia/reperfusion injury, serum ALT and AST", "assay_type": "in vivo", "settings": "10.0 mg/kg BW via internal jugular vein at beginning of reperfusion; 24 h", "experimental": "FIG. 10. Intravenous administration of Cx43 peptide antagonist conferred protection against hepatic ischemia/reperfusion (I/R) injury. Male C57BL/6 mice (20-25 g) were subjected to hepatic ischemia/reperfusion by temporally clamping the hepatic artery and portal vein for 60 minutes, which typically produced ischemia in 70% of the liver. At the beginning of the reperfusion, 0.2 ml saline, P5 (ENVCYD; 10.0 mg/kg BW) or P5A (ENVSYD (SEQ ID NO:14); 10.0 mg/kg BW) was injected via the internal jugular vein. At 24 h after the onset of ischemia, animals were euthanized to harvest blood to measure serum levels of hepatic injury markers such as alanine aminotransferase (ALT) and aspartate aminotransferase (AST) using commercial kits.\nIntravenous administration of Cx43 peptide antagonist conferred protection against hepatic ischemia/reperfusion (I/R) injury. Male C57BL/6 mice (20-25 g) were subjected to hepatic ischemia/reperfusion by temporally clamping the hepatic artery and portal vein for 60 minutes, which typically produced ischemia in 70% of the liver. At the beginning of the reperfusion, 0.2 ml saline, P5 (ENVCYD, 10.0 mg/kg BW) or P5A (ENVSYD (SEQ ID NO:14), 10.0 mg/kg) was injected via the internal jugular vein. […]"}, "[5]": {"tested_on": "connexin 43-gated hemichannel activities", "test": "Lucifer Yellow dye uptake in LPS-stimulated RAW 264.7 cells", "assay_type": "cell-based", "settings": "LPS 16 h, LY 1 mg/ml 15 min", "experimental": "FIG. 8. […] The Lucifer Yellow dye uptake was used to measure the connexin 43-gated hemichannel activities. […] Subsequently, cell cultures were incubated with Lucifer Yellow (LY, 1 mg/ml) for 15 min, and fixed with 2% paraformaldehyde following three extensive washes with 1× PBS. The number of cells with diffused fluorescent signals was counted under a fluorescence microscope. The cells containing punctuate fluorescent signals were excluded, as the punctuate signals likely resulted from phagocytosis (rather than passive diffusion through Cx43 hemichannels) of the LY dye.\nThe Lucifer Yellow dye uptake was used to measure the connexin 43-gated hemichannel activities. […] Subsequently, cell cultures were incubated with Lucifer Yellow (LY, 1 mg/ml) for 15 min, and fixed with 2% paraformaldehyde following three extensive washes with 1×PBS. The number of cells with diffused fluorescent signals was counted under a fluorescence microscope. The cells containing punctuate fluorescent signals were excluded, as the punctuate signals likely resulted from phagocytosis (rather than passive diffusion through Cx43 hemichannels) of the LY dye. […] Animal survival was assessed for up to two weeks, and the Kaplan-Meier method was used to compare the differences in mortality rates between groups. […]"}, "[6]": {"settings": "in vivo; cited from earlier work"}}, "note": "pEC50: −log10 of the molar value. Entries after “also recorded” stand apart in the source; their conditions may differ.", "data": [{"compound": "Gap19: mimetic peptide KQIEIKKFK (SEQ ID NO:19), intracellular loop of Cx43 (HOMO SAPIENS)", "values": [{"measurement": "Cx43 hemichannel activities", "setting": "Cx43 hemichannel", "value": "specifically inhibits"}, {"measurement": "Cx43 gap junction communication", "setting": "Cx43 gap junctions", "value": "without affecting"}, {"measurement": "Panx1 channel activity", "setting": "Panx1 hemichannels", "value": "without affecting"}]}, {"compound": "CCCN(CCC)S(=O)(=O)c1ccc(C(=O)O)cc1", "note": "[probenecid]", "values": [{"measurement": "specificity for Panx1 (over Cx43)", "setting": "Panx1 hemichannels", "value": "more specific inhibitor"}]}, {"compound": "10Panx: Panx1-specific mimetic inhibitory peptide, residues 74 to 83 of SEQ ID NO:16 (WRQAAFVDSY; HOMO SAPIENS)", "values": [{"measurement": "P2X7R-induced Panx1 hemichannel activation", "setting": "Panx1 hemichannels", "value": "selectively attenuate"}]}, {"compound": "CC1(C)[C@@H](OC(=O)CCC(=O)O)CC[C@]2(C)[C@H]3C(=O)C=C4[C@@H]5C[C@@](C)(C(=O)O)CC[C@]5(C)CC[C@@]4(C)[C@]3(C)CC[C@@H]12", "note": "[CBX, carbenoxolone]", "values": [{"measurement": "LPS-induced HMGB1 secretion", "setting": "[1]", "value": "effectively suppressed; also recorded: dose-dependently abrogated; also recorded: remarkably inhibited"}, {"measurement": "concentrations of CBX used to abrogate LPS-induced HMGB1 secretion in macrophages", "setting": "[2]", "value": "5 to 10", "unit": "µM"}, {"measurement": "number of LY-positive cells", "setting": "[3]; prolonged LPS stimulation, quiescent approximately 2%, LPS alone ~16%", "value": "6-8%"}, {"measurement": "Panx1 hemichannel-mediated ATP release", "setting": "Panx1 hemichannel; CBX 10 μM, hypoxia, sheer stress, low oxygen tension", "value": "effectively inhibited"}, {"measurement": "ATP release from apoptotic cells", "setting": "Panx1 hemichannel; CBX >100 μM", "value": "uniformly attenuated"}, {"measurement": "pEC50", "setting": "Cx43 gap junctions", "value": "4.00 to 4.30"}, {"measurement": "LPS (endotoxin)-induced NO production", "setting": "[4]", "value": "effectively suppressed; also recorded: remarkably inhibited"}, {"measurement": "pEC50", "setting": "Panx1 hemichannels", "value": "5.40 to 6.00"}, {"measurement": "LPS-induced elevation of PKR expression and phosphorylation", "setting": "PKR", "value": "dose-dependently abrogated; also recorded: significantly attenuated"}]}, {"compound": "P5: peptide ENVCYD (SEQ ID NO:1), Cx43 peptide antagonist from extracellular loop 1 (listed as Homo Sapiens)", "values": [{"measurement": "protection against hepatic I/R injury (serum ALT, AST)", "setting": "C57BL/6 mice", "value": "significant protection"}, {"measurement": "bacterial endotoxin-induced Lucifer Yellow dye uptake", "setting": "[5]", "value": "significantly inhibited"}]}, {"compound": "Nc1ncnc2c1ncn2[C@@H](C=O)O[C@@H](C=O)COP(=O)(O)OP(=O)(O)OP(=O)(O)O", "note": "[oATP]", "values": [{"measurement": "LPS-induced HMGB1 secretion", "setting": "[1]", "value": "similarly inhibited"}, {"measurement": "LPS-induced LY-uptake", "setting": "[3]; data not shown", "value": "similarly inhibited"}, {"measurement": "LPS-induced elevation of PKR expression and phosphorylation", "setting": "PKR", "value": "significantly attenuated"}]}, {"compound": "CC1(C)[C@@H](O[C@H]2O[C@H](C(=O)O)[C@@H](O)[C@H](O)[C@H]2O[C@@H]2O[C@H](C(=O)O)[C@@H](O)[C@H](O)[C@H]2O)CC[C@]2(C)[C@H]3C(=O)C=C4[C@@H]5C[C@@](C)(C(=O)O)CC[C@]5(C)CC[C@@]4(C)[C@]3(C)CC[C@@H]12", "note": "[GZA, glycyrrhizic acid]", "values": [{"measurement": "benefit in animal models of hepatitis, hepatic ischemia/reperfusion, toxin-induced liver injury, endotoxemia, colitis", "setting": "[6]", "value": "proven beneficial"}]}]}
